# In patent publication US4146637A, “Anti-inflammatory N-acyl substituted benzamides” (priority 1976, dated 1979):
# Structures can show the parent of a compound that is named as a salt. Where two headings read alike, the source gives them in different places.
# Columns and labels:
# Muscle relaxant test = format: in vivo, mouse; conditions: po; for minimal effective dose at 300 mg/kg: mouse, p.o., read-out: Muscle relaxant, MED (average minimal effective dose)
# Method: (§1) As the results of Table 3 show, the compounds of this invention have both lower toxicity and different side effects than metoclopramide. Compounds of this invention have interesting pharmacological characteristics. The pharmaco dynamics of the compounds prepared in Examples 9, 43 and 48 in the form of their hydrochlorides, as well as the reference compound, metoclopramide dihydrochloride, were determined by pharmacological screening for 54 group activities. The activities which were found were confirmed by secondary tests. Additionally, the ED100 of known group-specific comparative compounds is given.
# Cataleptic test = format: in vivo, mouse; conditions: po; for minimal effective dose at 100 mg/kg: mouse, p.o., read-out: Cataleptic, MED (average minimal effective dose)
# Method: as §1
# [1] = antiallergic characteristics (summary statement); conditions: result in words
# [2] = antimicrobial characteristics (summary statement); conditions: result in words
# [3] = acute carrageneen experiment; format: in vivo; conditions: result in words
# Adjuvans arthritis = Adjuvans arthritis stoppage; format: in vivo, rat; conditions: for anti-inflammatory activity in the adjuvenous arthritis test: result in words; for Adjuvans arthritis stoppage, percent inhibition of the secondary lesions on the 14th day (first value) / Adjuvans arthritis stoppage, percent inhibition of the secondary lesions on the 14th day (second value): rat, 100 mg/kg p.o.; for Adjuvans arthritis stoppage, percent inhibition of the secondary lesions on the 14th day (first value): first of two values; for Adjuvans arthritis stoppage, percent inhibition of the secondary lesions on the 14th day (second value): second of two values
# Method: as §1
# β-adrenergic = β-adrenergic blockage, in vitro; parameters: unit not given here; conditions: in vit., rat, dose 10
# Method: as §1
# Antiasthmatic test = format: in vivo; conditions: po, rat, p.o.; for minimal effective dose: read-out: Antiasthmatic, MED (average minimal effective dose)
# Method: as §1
# [4] = Systematic anaphylactic test; format: in vivo; conditions: po, mouse, p.o.
# Method: as §1
# Antithrombotic test = format: in vivo, rat; conditions: po; for minimal effective dose at 100 mg/kg: rat, p.o., read-out: Antithrombotic, MED (average minimal effective dose)
# Method: as §1
# Antiedematous test = format: in vivo; conditions: po, rat, p.o.; for minimal effective dose: read-out: Antiedematous, MED (average minimal effective dose)
# Method: as §1
# E. Coli = test: antibacterial test E. Coli, in vitro; format: cell-based; conditions: in vit.
# Method: as §1
# Antiarrhytmic test = format: in vivo; conditions: mouse, i.p.
# Method: as §1
# [5] = rat, cited from earlier work
# [6] = i.p., mouse; cited from earlier work
# Amphetamine stereotype = format: in vivo, mouse; conditions: po
# Method: as §1
# Anti-electroshock test = format: in vivo; conditions: po, mouse, p.o.
# Method: as §1
# Antiaggressive test = format: in vivo, mouse
# Method: as §1
compound,measurement,setting,value
CCC1(c2ccccc2)C(=O)NC(=O)NC1=O [phenobarbital],ED100,"Muscle relaxant test; Mus musculus, read-out: Muscle relaxant, ED100 of reference compound",100 mg/kg
same,ED100,"Cataleptic test; Mus musculus, read-out: Cataleptic, ED100 of reference compound",100 mg/kg
CCN(CC)CCNC(=O)c1cc(Cl)c(NC(=O)C(C)Oc2ccc(Cl)cc2)cc1OC (stereo not drawn) [Example 45],antiallergic characteristics,[1],antiallergic characteristics
same,antimicrobial characteristics,[2],weak antimicrobial
same,anti-inflammatory activity in the acute carrageneen experiment,[3],very strong anti-inflammatory activity
same,anti-inflammatory activity in the adjuvenous arthritis test,Adjuvans arthritis,very strong anti-inflammatory activity
CCN(CC)CCNC(=O)c1cc(Cl)c(NC(=O)C(C)(C)Oc2ccc(Cl)cc2)cc1OC [Example 9],"β-adrenergic blockage, MEC (average effective concentration)",β-adrenergic,10
CCN(CC)CCNC(=O)c1cc(Cl)c(NC(=O)COc2ccc(Cl)cc2)cc1OC [Example 40],antiallergic characteristics,[1],antiallergic characteristics
same,antimicrobial characteristics,[2],weak antimicrobial
same,anti-inflammatory activity in the acute carrageneen experiment,[3],very strong anti-inflammatory activity
same,anti-inflammatory activity in the adjuvenous arthritis test,Adjuvans arthritis,very strong anti-inflammatory activity
CCN(CC)CCNC(=O)c1cc(Cl)c(NC(=O)COc2ccc(Cl)cc2)cc1OC [Example 43],minimal effective dose at 300 mg/kg,Muscle relaxant test,300 mg/kg
same,minimal effective dose,Antiasthmatic test,100 mg/kg
same,minimal effective dose,"[4]; read-out: Systematic anaphylactic, MED (average minimal effective dose)",100 mg/kg
same,"Adjuvans arthritis stoppage, percent inhibition of the secondary lesions on the 14th day (first value)",Adjuvans arthritis,43%
same,"Adjuvans arthritis stoppage, percent inhibition of the secondary lesions on the 14th day (second value)",Adjuvans arthritis,46%
same,minimal effective dose at 100 mg/kg,Antithrombotic test,50 mg/kg
same,minimal effective dose,Antiedematous test,100 mg/kg
same,minimal effective dose at 100 mg/kg,Cataleptic test,100 mg/kg
CC1(C)S[C@@H]2[C@H](NC(=O)[C@H](N)c3ccccc3)C(=O)N2[C@H]1C(=O)O [ampicillin],"E. Coli, ED100 of reference compound",E. Coli,0.5 mg/kg
guanidine,"Antiarrhytmic, ED100 of reference compound",Antiarrhytmic test,100 mg/kg
CCN(CC)CCNC(=O)c1cc(Cl)c(N)cc1OC [metoclopramide],LD50,[5]; i.p.,180 mg/kg
same,LD50,[5]; oral,235 mg/kg
same,LD50,[6],242 mg/kg
CCN(CC)CCNC(=O)c1cc(Cl)c(N)cc1OC [metoclopramide dihydrochloride],minimal effective dose at 300 mg/kg,Muscle relaxant test,100 mg/kg
same,minimal effective dose at 25 mg/kg,"Amphetamine stereotype; mouse, p.o., dose 25 mg/kg, read-out: Amphetamine stereotype, MED (average minimal effective dose)",25 mg/kg
same,minimal effective dose,"Anti-electroshock test; read-out: Anti-electroshock, MED (average minimal effective dose)",100 mg/kg
same,minimal effective dose,"Antiarrhytmic test; ip, read-out: Antiarrhytmic, MED (average minimal effective dose)",100 mg/kg
same,minimal effective dose,Antiedematous test,50 mg/kg
same,Antiaggressive,"Antiaggressive test; mouse, p.o., dose 50 mg/kg, MED not given",50 mg/kg
same,minimal effective dose at 100 mg/kg,Cataleptic test,100 mg/kg
CC(=O)Oc1ccccc1C(=O)O [acetylsalicylic acid],ED100,"Antithrombotic test; Rattus norvegicus, read-out: Antithrombotic, ED100 of reference compound",100 mg/kg
CCN(CC)CCNC(=O)c1cc(Cl)c(NC(=O)C(C)Oc2ccc(Cl)cc2)cc1OC (stereo not drawn) [Example 48],minimal effective dose,Antiasthmatic test,100 mg/kg
same,"Adjuvans arthritis stoppage, percent inhibition of the secondary lesions on the 14th day (first value)",Adjuvans arthritis,45%
same,"Adjuvans arthritis stoppage, percent inhibition of the secondary lesions on the 14th day (second value)",Adjuvans arthritis,33%
same,minimal effective dose at 100 mg/kg,Antithrombotic test,100 mg/kg
CCCCC1C(=O)N(c2ccccc2)N(c2ccccc2)C1=O [phenybutazone],ED100,"Antiedematous test; read-out: Antiedematous, ED100 of reference compound",50 mg/kg
O=C(O)c1cc(=O)c2c(OCC(O)COc3cccc4oc(C(=O)O)cc(=O)c34)cccc2o1 [chromoglycine-sodium],ED100,"Antiasthmatic test; read-out: Antiasthmatic, ED100 of reference compound",60 mg/kg
CN(C)CCCN1c2ccccc2Sc2ccc(Cl)cc21 [chlorpromazine],ED100,"Amphetamine stereotype; Mus musculus, read-out: Amphetamine stereotype, ED100 of reference compound",5 mg/kg
same,ED100,"Antiaggressive test; Mus musculus, po, read-out: Antiaggressive, ED100 of reference compound",5 mg/kg
O=C1NC(=O)C(c2ccccc2)(c2ccccc2)N1 [diphenylhydomtoin],ED100,"Anti-electroshock test; read-out: Anti-electroshock, ED100 of reference compound",10 mg/kg
CN(C)CCOc1ccccc1Cc1ccccc1 [phenyltoloxamine],ED100,"[4]; read-out: Systematic anaphylactic, ED100 of reference compound",50 mg/kg
